Source: patent publication US20240246918A1, “COMPOUNDS AND COMPOSITIONS AS EIF4E INHIBITORS AND THE USES THEREOF” (Ribometrix, Inc., priority 2022, published 2024)

Tests used:
[1] = system: COLO 205 colorectal tumor cells; assay: Tumor cell viability inhibition assay (CellTiter-Glo 2.0, 72 hours); format: cell-based; details: Homo sapiens, COLO 205, 72 h, COLO 205 cell viability
Protocol: The effect of compound treatment on COLO 205 tumor cell viability was assessed using cellular ATP quantification methods (Promega CellTiter-Glo® 2.0, G9241), as follows. Test compounds were prepared using 11-point, 4-fold serial dilutions in DMSO and 100 nL of diluted compounds were transferred to 384-well assay-ready plates. COLO 205 (ATCC, CCL-222) colorectal tumor cells were seeded to assay-ready plates in RPMI-1640 medium supplemented with 10% FBS at 1500 cells in a volume of 33.5 microliters per well. After 72 hours of compound treatment, cellular ATP was assessed by CellTiter-Glo® 2.0 Cell Viability Assay method, according to the manufacturer's instructions. Luminescence was measured using a Clariostar Plus microplate reader (BMG Labtech) or equivalent. After normalization to the average of DMSO control and maximum inhibition control wells, concentration-response data were plotted and standard 4-parameter curve fitting (PEI Signals) was utilized to determine IC50

human eIF4E protein = biological target: T1, human eIF4E protein (Homo sapiens, UniProt P06730); assay: Biochemical competitive binding assay (TR-FRET competition, EDA-m7GDP-ATTO-647N probe); details: read-out: hEIF4E TR-FRET IC50
T1 construct: purchased Novus NBP-45314
Protocol: The potencies of compounds binding to human eIF4E protein were measured using a 384-well time-resolved fluorescence resonance energy transfer (TR-FRET) competition assay. The assay was performed in assay buffer containing 50 mM HTEPES pH 7.5, 100 mM KCl, 0.02% Tween-20, and 0.1 mg/mL bovine serum albumin (BSA). The reaction volume was 10 μL and each reaction contained 4 nM recombinant 6×HIS-tagged human EIF4E protein (Novus, NBP-45314), 5 nM EDA-m7GDP-ATTO-647N (Jena Bioscience, NU-827-647N), 2.5 nM Europium conjugated Anti-6×HIS antibody (PerkinElmer, AD0402) and varying concentrations of compound. The final DMSO concentration was […].
Compounds were prepared using 11-point, 4-fold serial dilutions in DMSO and 100 nL of diluted compounds were transferred to 384-well assay-ready plates. Recombinant human EIF4E protein at 2× final concentration (8 nM) was pre-incubated with Eu-anti-6×HIS antibody at 2× final concentration (5 nM) for 5 minutes, then 5 μL of the protein solution was added to assay-ready plates. The protein/compound mix was incubated for 15 minutes, after which 5 μL of a solution containing EDA-m7GDP-ATTO-647N probe at 2× final concentration (10 nM) was added. After a subsequent 15-minute incubation, time-resolved fluorescence of assay plates was measured using a Clariostar Plus microplate reader (BMG Labtech) and TR-FRET values were calculated by taking a ratio of the 665 to 620 wavelength signals. After normalization to the average of DMSO control and maximum inhibition control wells, concentration-response data were plotted and standard 4-parameter curve fitting (PEI Signals) was utilized to determine IC50 values.

T1 sequence (P06730 whole entry): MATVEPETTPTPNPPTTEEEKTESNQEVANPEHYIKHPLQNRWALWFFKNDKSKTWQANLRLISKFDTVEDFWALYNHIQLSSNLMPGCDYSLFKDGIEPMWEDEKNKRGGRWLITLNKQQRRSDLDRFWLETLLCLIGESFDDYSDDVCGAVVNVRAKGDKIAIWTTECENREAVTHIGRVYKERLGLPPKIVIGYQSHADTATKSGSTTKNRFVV

Structure (SMILES) | IC50 [1] [µM] | IC50 (human eIF4E protein) [µM]
Cc1cc(-c2cc(Cl)ccc2OCCn2c(C)nc3c(c2=O)C[C@H](N2CC[C@H](OC(F)(F)F)C2)CC3)c2scc(C(=O)O)c2n1 (single isomer, unassigned) [Compound 386] | < 5 | < 0.1
Cc1cc(-c2cc(Cl)ccc2OCCn2c(C)nc3c(c2=O)C[C@H](N2CC[C@@H](OC(F)(F)F)C2)CC3)c2scc(C(=O)O)c2n1 (single isomer, unassigned) [Compound 387] | < 5 | < 0.1
Cc1cc(-c2cc(Cl)ccc2OCCn2c(C)nc3c(c2=O)C[C@@H](N2CC[C@H](OC(F)(F)F)C2)CC3)c2scc(C(=O)O)c2n1 (single isomer, unassigned) [Compound 388] | < 5 | < 0.1
Cc1cc(-c2cc(Cl)ccc2OCCn2c(C)nc3c(c2=O)C[C@@H](N2CC[C@@H](OC(F)(F)F)C2)CC3)c2scc(C(=O)O)c2n1 (single isomer, unassigned) [Compound 389] | < 5 | < 0.1
Cc1cc(-c2cc(Cl)ccc2OCCn2c(C)nc3c(c2=O)C[C@H](N2CCC4(CC2)CC4(F)F)CC3)c2scc(C(=O)O)c2n1 (single isomer, unassigned) [Compound 390] | < 5 | < 0.1
Cc1cc(-c2cc(Cl)ccc2OCCn2c(C)nc3c(c2=O)C[C@@H](N2CCC4(CC2)CC4(F)F)CC3)c2scc(C(=O)O)c2n1 (single isomer, unassigned) [Compound 391] | < 5 | < 0.1
Cc1cc(-c2cc(Cl)ccc2OCCn2c(C)nc3c(c2=O)C[C@@H](N2CC[C@H](OC(F)(F)F)C(C)(C)C2)CC3)c2scc(C(=O)O)c2n1 (single isomer, unassigned) [Compound 392] | < 5 | < 0.1
Cc1cc(-c2cc(Cl)ccc2OCCn2c(C)nc3c(c2=O)C[C@@H](N2CC[C@@H](OC(F)(F)F)C(C)(C)C2)CC3)c2scc(C(=O)O)c2n1 (single isomer, unassigned) [Compound 393] | 5 to 20 | < 0.1
Cc1cc(-c2cc(Cl)ccc2OCCn2c(C)nc3c(c2=O)C[C@H](N2CC[C@H](OC(F)(F)F)C(C)(C)C2)CC3)c2scc(C(=O)O)c2n1 (single isomer, unassigned) [Compound 394] | < 5 | < 0.1
Cc1cc(-c2cc(Cl)ccc2OCCn2c(C)nc3c(c2=O)C[C@H](N2CC[C@@H](OC(F)(F)F)C(C)(C)C2)CC3)c2scc(C(=O)O)c2n1 (single isomer, unassigned) [Compound 395] | 5 to 20 | < 0.1
Cc1cc(-c2cc(Cl)ccc2OCCn2c(C)nc3c(c2=O)C[C@@H](N2[C@@H]4CC[C@H]2C[C@@H](OC(F)(F)F)C4)CC3)c2scc(C(=O)O)c2n1 (single isomer, unassigned) [Compound 396] | < 5 | < 0.1
Cc1cc(-c2cc(Cl)ccc2OCCn2c(C)nc3c(c2=O)C[C@@H](N2[C@@H]4CC[C@H]2C[C@H](OC(F)(F)F)C4)CC3)c2scc(C(=O)O)c2n1 (single isomer, unassigned) [Compound 397] | 5 to 20 | 0.1 to 0.5
Cc1cc(-c2cc(Cl)ccc2OCCn2c(C)nc3c(c2=O)C[C@H](N2[C@@H]4CC[C@H]2C[C@@H](OC(F)(F)F)C4)CC3)c2scc(C(=O)O)c2n1 (single isomer, unassigned) [Compound 398] | > 20 | 0.1 to 0.5
Cc1cc(-c2cc(Cl)ccc2OCCn2c(C)nc3c(c2=O)C[C@H](N2[C@@H]4CC[C@H]2C[C@H](OC(F)(F)F)C4)CC3)c2scc(C(=O)O)c2n1 (single isomer, unassigned) [Compound 399] | < 5 | < 0.1
Cc1cc(-c2cc(Cl)ccc2OCCn2c(C)nc3c(c2=O)C[C@H](N2CCCC(F)(F)CC2)CC3)c2scc(C(=O)O)c2n1 (single isomer, unassigned) [Compound 401] | < 5 | < 0.1
Cc1cc(-c2cc(Cl)ccc2OCCn2c(C)nc3c(c2=O)C[C@@H](N2CCCC(F)(F)CC2)CC3)c2scc(C(=O)O)c2n1 (single isomer, unassigned) [Compound 402] | < 5 | < 0.1
